In ChEMBL document CHEMBL4020744 (Bioorg Med Chem Lett, 2017):

What was measured:
Huh-7 = experiment: Cytotoxicity against human HuH7 cells after 2 to 3 hrs by CellTiter-Glo assay; format: cell-based
Ebolavirus [1] = experiment: Antiviral activity against Ebolavirus Makona infected in human HeLa cells preincubated for 2 hrs followed by viral infection measured after 15 to 20 hrs by Draq5 staining based assay; format: functional, cell-based, Zaire ebolavirus Makona; conditions: Orthoebolavirus
[2] = Cytotoxicity against human HeLa cells after 2 hrs by Draq staining based assay; format: cell-based
Ebolavirus [3] = experiment: Antiviral activity against Sudan virus Gulu infected in human HeLa cells preincubated with cells for 2 hrs followed by viral infection measured after 48 hrs by immunostaining based assay; format: functional, cell-based, Sudan ebolavirus; conditions: Orthoebolavirus
Rift Valley fever virus = experiment: Antiviral activity against Rift Valley fever virus infected in human HeLa cells preincubated for 2 to 3 hrs followed by viral infection measured after 3 days by fluorescence assay; format: functional, cell-based
Lassa virus = experiment: Antiviral activity against Lassa virus infected in human HuH7 cells pretreated for 2 to 3 hrs followed by viral infection measured after 3 days by fluorescence assay; format: functional, cell-based; conditions: Mammarenavirus lassaense, Huh-7
Marburgvirus = experiment: Antiviral activity against Marburg virus Ci67 infected in human HeLa cells preincubated for 2 hrs followed by viral infection measured after 15 to 20 hrs by Draq staining based assay; format: functional, cell-based, Lake Victoria marburgvirus - Ci67; conditions: Orthomarburgvirus

| SMILES | CC50 (Huh-7) [µM] | EC50 (Ebolavirus [1]) [µM] | CC50 at 2 h [2] [µM] | EC50 (Ebolavirus [3]) [µM] | EC50 (Rift Valley fever virus) [µM] | EC50 (Lassa virus) [µM] | EC50 (Marburgvirus) [µM] |
| --- | --- | --- | --- | --- | --- | --- | --- |
| CCC(CC)COC(=O)[C@H](C)N[P@](=O)(OCCOCn1cnc(-c2cnc(N)nc2OC)c1)Oc1ccccc1 | > 50 | 29 | > 100 | 7 | > 50 | > 50 | 62 |
| COc1nc(N)ncc1-c1cn(COCCO)cn1 | > 50 | > 100 | > 100 | > 100 | > 50 | > 50 | > 100 |
| COc1nc(N)ncc1-c1cn(COCCOC(C)=O)cn1 | – | 44 | > 100 | 20 | – | – | 70 |
